Experiments:
golden hamsters = assay: Seed finding model of anxiety; format: in vivo, Syrian golden hamsters (Mesocricetus auratus)
Excerpt: Clavulanic acid (CLAV) is structurally similar to the beta-lactam antibiotics. A most robust and simple bioassay for screening beta-lactams for CNS activity is the golden hamster seed finding model of anxiety. Briefly, hamsters are deprived of food overnight. The following day they are exposed to the additional stress of being taken from their home cage and placed in a novel environment for a few minutes. This manipulation stimulates the release of the stress hormone cortisol (FIG. 37). During their absence from the home cage, sunflower seeds are hidden under the bedding in one of the corners. When returned to the home cage, hamsters routinely scramble along the walls for 1-2 min before settling down, locating and eating the seeds. However, animals treated with the benzodiazepine anxiolytic chlordiazepoxide find seeds in less than 10 sec.
Male, Syrian golden hamsters (Mesocricetus auratus) (120-130 g) obtained from Harlan Sprague-Dawley Laboratories (Indianapolis, Ind.) were housed individually in Plexiglas cages (24 cm×24 cm×20 cm), maintained on a reverse light:dark cycle (14L:10D; lights on at 19:00 hr) and provided food and water ad libitum. A range of concentrations of CLAV (saline vehicle, 0.1, 1.0, 10, 100 1,000 ng/kg) were tested in six groups of hamsters (4-8/group)(FIG. 25). All tests were conducted during the dark phase of the circadian cycle under dim red illumination. Prior to testing all animals were fasted for 20-24 hrs. Ninety min after intraperitoneal (IP) injection of drug, animals were taken from their home cage and placed into a holding cage for 2 min. During their absence, six sunflower seeds were buried under the bedding in one corner of their home cage. Animals were placed back into their home cage randomly facing any one of the empty corners and timed for their latency to find the seeds in a five min observation period. Latency times were analyzed with a one-way ANOVA followed by Scheffe's post hoc tests. Assumption of equal variances was tested (Hartley's F-max=2.1 p>0.05)
It was hypothesized that CLAV functioned as an anxiolytic in the seed finding assay by blocking NAALADase activity in the brain. If this notion were true then it would be predicted that drugs known to block NAALADase should also enhance seed finding. To this end, animals were treated with N-acetyl-beta-aspartyl-glutamic acid (beta-NAAG), a competitive inhibitor of NAALADase (Serval et al., 1992) and tested in the seed finding model of anxiety. The study was similar to that outlined in Section I with one notable exception. […] Beta-NAAG (FW 304) was given in a dose of 3 ng in a volume of 1 μl saline ICV. The average adult hamster brain weights ca. 1.2 g of which 22% is extracellular fluid. The estimated beta-NAAG concentration was 11 ng/ml or 36 nM.
Two groups of six animals each were fasted overnight as previously described and tested the following day. One group was treated with beta-NAAG and the other saline vehicle and one hr later timed for latency to find the hidden sunflower seeds. A Student t-test for unpaired data was used for statistical comparisons.

rats = assay: Motor activity in an open field (plus-maze animals); format: in vivo, rat; details: 1 mM direct injection into the brain, 30 min prior to plus-maze
Procedure: However, this depression of motor activity disappears following repeated administration of CDP over several days. […] To control for any non-specific effects of Mox and CDP on motor activity following their direct injection into the brain, animals were tested in the open field 30 min prior to testing in the plus (FIG. 18).
Immediately after each of the plus-maze tests reported above in Section II, animals were tested for general motor activity in an “open field.” Animals were placed into a large clean Plexiglas cage (48×32×40 cm) devoid of bedding. This open field was delineated into equal quadrants by tape on the underside of the cage. Animals were scored for motor activity by counting the number of quadrants traversed in 1 min.

Male Wistar rats = assay: Elevated plus-maze (anxiolytic activity); format: in vivo, rat; details: 1 mM, 2 ul into lateral ventricle, 60 min
Excerpt: (§1) The elevated plus-maze was developed for the detection of anxiolytic and anxiogenic drug effects in the rat (Pellow et al., 1985). The method has been validated behaviorally, physiologically, and pharmacologically. The plus-maze consists of two open arms and two enclosed arms. […] Conversely, anxiogenic compounds like yohimbin or amphetamines reduce open arm entries and time spent in the open arms.
Male Wistar rats weighing 250-300 g were group housed in a normal 12:12 light-dark cycle light on at 0800 hr and provide food and water ad libitum. The plus-maze consisted of two open arms, 50×10 cm, and two enclosed arms 50×10×40 cm with an open roof, arranged such that the two open arms were opposite to each other. The maze was elevated to a height of 50 cm.
Eight animals were tested in the plus-maze 90 min following IP injection with 50 μg/kg Mox and saline vehicle. The order of treatments was counter balanced with at least 48 hrs between injections. At the start of the experiment the animal was place in the center of the plus maze facing the closed arm. Over a five min observation period, animals were scored for the latency to enter the closed arm, time spent in the closed arm and the number of open arm entries following the first occupation of the closed arm (FIG. 7).
Because Mox and CDP have different bioavailability profiles, e.g. brain penetrance, their CNS activity could not be compared by giving systemic injections of equimolar concentrations of each drug. Instead it was necessary to give both drugs directly into the cerebroventricular system to by pass the blood brain barrier. Animals were anesthetized with sodium pentobarbital (50 mg/kg), implanted with microinjection guide cannulae aimed at the lateral ventricle and allowed to recover for two days before testing. To groups of six animals each were tested with Mox or CDP. Each animals received a injection of drug and 0.9% NaCl vehicle on two separate days. The order of injections was counterbalanced and separated by two days. Both Mox and CDP were prepared in 0.9% NaCl at a concentration of 1 mM. All injections were given in a volume of 2 ul over 10 secs in fully conscious, restrained animals. Sixty min later animals were tested in the plus-maze for a 3 min observation period and scored for behaviors as noted previously.
as §1, with “screening” for “the detection of”
Male Wistar rats weighing 250-300 g were group housed in a normal 12:12 light-dark cycle with light on at 0800 hr and provided food and water ad libitum. The plus-maze consisted of two open arms, 50 cm long, 10 cm wide, with walls 40 cm high made of clear Plexiglas. The two closed arms had the same dimensions but included a roof. The Plexiglas for the closed arms was painted black. Each pair of arms was arranged opposite to each other to form the plus-maze. The maze was elevated to a height of 50 cm. Eighteen animals were tested in the plus-maze 90 min following the IP injection of 1.0 μg/kg CLAV, 50 or vehicle control in a volume of ca. 0.3 ml. The order of treatments was counter balanced with at least 48 hrs between injections. At the start of the experiment, the animal was placed at the end of one of the open arms. Over a five min observation period, animals were scored for the latency to enter the closed arm, time spent in the closed arm and the number of open arm entries following the first occupation of the closed arm. The study produced tables of repeated measures. The data between treatments were compared with a two-way, repeated measures ANOVA followed by Bonferroni post hoc tests. […]

[1] = in vivo; cited from earlier work
male golden hamsters = assay: Resident/intruder paradigm of offensive aggression; format: in vivo, Syrian golden hamsters (Mesocricetus auratus)
Procedure: Male Syrian golden hamsters (Mesocricetus auratus) (140-150 g) obtained from Harlan Sprague-Dawley Laboratories (Indianapolis, Ind.) were housed individually in Plexiglas cages (24 cm×24 cm×20 cm), maintained on a reverse light:dark cycle (14L:10D; lights on at 19:00 hr) and provided food and water ad libitum. Animals were acclimated to the reverse light:dark cycle for at least two weeks before testing. All behavioral tests were conducted during the dark phase of the circadian cycle. All animals were acquired and cared for in accordance with the guidelines published in the Guide for the Care and Use of Laboratory Animals (National Institutes of Health Publications No. 85-23, Revised 1985).
(§2) Agonistic behavior can be classified as either offensive or defensive aggression (Blanchard and Blanchard, 1977; Adams, […]; Albert and Walsh, 1984). Offensive aggression is characterized by the aggressor initiating an attack on an opponent, while defensive aggression lacks active approach. Both types of aggression have their own unique neurobehavioral systems. The stimuli that elicit offensive and defense attack are different, as are the sequences of behaviors that accompany each agonistic response. […] Offensive aggression is easily studied using male golden hamsters tested in a resident/intruder paradigm, an established model of offensive aggression (Ferris and Potegal 1988). Placing an unfamiliar male hamster into the home cage of another male hamster elicits a well-defined sequence of agonistic behaviors from the resident that includes offensive aggression.
(§3) Hamsters are nocturnal and as such all behavioral tests were performed during the first four hrs of the dark phase under dim red illumination. The resident was scored for offensive aggression, e.g., latency to bite the intruder, the total number of bites, total contact time with the intruder and flank marking over a 10 min test period (Ferris and Potegal, 1988). Flank marking is a form of olfactory communication in which a hamsters arches its back and rubs pheromone producing flank glands against objects in the environment (Johnson, 1986).
Parametric data, i.e., latencies and contact time, were analyzed with a one-way ANOVA followed by Newman-Keuls post hoc tests. Non parametric data, i.e., number of bites and flank marks, were analyzed with Kruskal-Wallis tests followed by Mann-Whitney U tests to determine differences between groups. Two sample comparisons were analyzed with paired and unpaired t-Tests for parametric data and Wilcoxon and Mann-Whitney Tests for paired and unpaired non-parametric data, respectively.
as §2, with “by an” for “by the”, “an opponent; while,” for “an opponent, while”, “Potegal 1988) in the context of defending the home burrow.” for “Potegal 1988).”
as §3, with “Flank marking is a form of olfactory communication in which a hamsters arches its back and rubs pheromone producing flank glands against objects in the environment (Johnson, 1986).” left out

[2] = Estimated fluid and brain concentrations after dosing hamsters; format: in vivo, hamster
Procedure: The adult male hamsters used in these studies weighed around 125 g. […] CLAV has a volume of distribution approximating the extracellular fluid volume. The extracellular water content of lean body mass is approximately 22%.
To this end, animals were treated with N-acetyl-beta-aspartyl-glutamic acid (beta-NAAG), a competitive inhibitor of NAALADase (Serval et al., 1992) and tested in the seed finding model of anxiety. The study was similar to that outlined in Section I with one notable exception. […] Beta-NAAG (FW 304) was given in a dose of 3 ng in a volume of 1 μl saline ICV. The average adult hamster brain weights ca. 1.2 g of which 22% is extracellular fluid.

hamsters = assay: Olfactory discrimination: latency to find hidden sunflower seeds; format: in vivo, Syrian golden hamsters (Mesocricetus auratus); details: 1 mg/kg intracerebroventricular, sixty min, five min observation
Procedure: Sixteen animals were treated with vehicle or 50 μg/kg Mox and tested for olfactory discrimination by measuring their latency to find hidden sunflower seeds (FIG. 5). The injections were counterbalanced with each animal receiving each treatment. Prior to testing animals were fasted for 24 hrs. Ninety minutes after injection animals were briefly taken from their home cage while six sunflower seeds were buried under the bedding in one corner. Animals were placed back into their home cage and scored for the latency to find the seeds in a ten min observation period. […] In fact, not one of the sixteen animals consumed all of the seeds following saline as compared to all animals treated with Mox.
Six animals received an intracerebroventricular injection of vehicle or 1 mg/kg PPP and tested for olfactory discrimination by measuring their latency to find hidden sunflower seeds (FIG. 16). The injections were counterbalanced with each animal receiving each treatment. Prior to testing animals were fasted for 24 hrs. Sixty min. After injection animals were briefly taken from their home cage while six sunflower seeds were buried under the bedding in one corner. Animals were placed back into their home cage and scored for the latency to find the seeds in a five min. Observation period.

CNC1=Nc2ccc(Cl)cc2C(c2ccccc2)=[N+]([O-])C1 [CDP, Chlordiazepoxide]
time to find seeds (golden hamsters; dose not given): less than 10 sec
general motor activity in the open field (rats): no significant effect
time spent in the closed arm (dark) (Male Wistar rats): no effect
latency to enter the closed arm (Male Wistar rats; 3 min observation): no effect

CC(=O)N[C@@H](CC(=O)N[C@@H](CCC(=O)O)C(=O)O)C(=O)O [beta-NAAG, N-acetyl-beta-aspartyl-glutamic acid]
latency to find the seeds vs saline vehicle (golden hamsters; 3 ng ICV, one hr, five min observation): significantly (p<0.001) different
mean latency to find the seeds (golden hamsters; 3 ng/μl microinjected, former vehicle animals three days later): 21.8 ± 9.7 s
blood-brain barrier transport / CNS penetrability [1]: does not readily cross the blood-brain barrier
measures of offensive aggression (latency to bite, bites, contact time, flank marking) (male golden hamsters; 3 ng ICV, after the seed finding assay): no significant differences
estimated concentration in brain extracellular fluid (molar) ([2]; beta-NAAG 3 ng ICV, FW 304): 36 nM
estimated concentration in brain extracellular fluid ([2]; beta-NAAG 3 ng in 1 μl ICV, brain ca. 1.2 g, 22% extracellular fluid): 11 ng/mL

Ala-D-γ-Glu-Lys-D-Ala-D-Ala [PPP]
latency to find the seed (hamsters): significantly (p<0.05) reduced
contact time (male golden hamsters; ca. 1 mg/kg ICV): no significant difference
flank marking (male golden hamsters; ca. 1 mg/kg ICV): no significant difference
number of bites (male golden hamsters; ca. 1 mg/kg ICV, sixty minutes): reduced
latency to bite (male golden hamsters; ca. 1 mg/kg in 1 μl into lateral ventricle, sixty minutes): significantly increased

Reference: US7842683B2, “Neurotherapeutic compositions and method” (Revaax Pharmaceuticals, LLC, priority 1999, dated 2010)
